Measured values taken from patent US9133224B2, “Macrocyclic kinase inhibitors” (OSI Pharmaceuticals, LLC, priority 2010, dated 2015).
Like-named read-outs stand apart in the source and are kept apart here.

Assays:
[1] = target: T1, FAK (Homo sapiens, UniProt Q05397); assay: Cell-based capture ELISA for inhibition of FAK autophosphorylation [pY397] in U87MG cells
T1 construct: endogenous in cells; host or cells: U87MG glioblastoma cells (ATCC HTB-14)
Description: Cell-Based Assays for Inhibition of FAK Autophosphorylation: MiaPaCa2 and U87MG
The ability of compounds to inhibit FAK autophosphorylation was determined in a cell-based capture ELISA assay using U87MG glioblastoma cells (ATCC, Cat # HTB-14) and the FAK [pY397]ELISA kit from Invitrogen (KHO0441). The assay determines the ability of compounds to block endogenous autophosphorylation of FAK stimulated by fibronectin. Cells plated on fibronectin coated 96-well plate were incubated with compounds at various concentrations in the complete growth medium for 2 h. Cell lysates were then prepared and FAK protein was captured onto a FAK antibody-coated 96-well ELISA plate. The phosphotyrosine content of FAK protein was then monitored by quantitation of degree of binding of an antibody that recognizes only the phosphorylated FAK at Y397 within the captured protein.
Reagents Provided in Biosource FAK [pY397]
Cultures of U87MG cells growing in MEM (Earles) containing non-essential amino acids, sodium pyruvate (1 mM), […] (1%) and 10% fetal bovine serum were detached by trypsin-EDTA and suspended in cell growth medium. Cells were then plated onto fibronectin (600 ng/well)-coated 96-well flat bottom plates at 1.7×10^4 cells per well in 60 uL cell growth medium and incubated overnight at 37° C. in a CO2 incubator.
Compound dilutions were prepared from 10 mM DMSO stocks by dilution in cell growth medium, the final concentration of DMSO in the assay being 0.6%. […] The cells were then incubated with compounds at 37° C. for 2 h. The medium was removed by aspiration and cells were lysed by addition of 20 uL of ice-cold cell lysis buffer per well. The plates were kept on ice for 20 min and 50 uL of standard diluent was added to each well. 50 uL of cell lysate from each well was transferred to respective wells in an assay plate and 50 uL of detection antibody was added to all wells except H1-H6 which were no antibody control wells. Capture assay plates were incubated overnight in a cold room.
Following incubation of the cell lysates and detection antibodies in the ELISA plate, the wells were washed 4 times with 120 uL of wash buffer (1×), then 100 uL of diluted HRP conjugated antibody (1:100 dil in diluent) was added to each well, and the plate was incubated at RT for 30 min. The wells were then washed for 4 times with 120 uL of wash buffer (1×) and 100 uL of chromogen was added to each well and incubated in the dark at RT for 5-10 min. 100 uL of stop solution was added to each well and the absorbance measured at 450 nm, 0.1 s.
Comparison of the assay signals obtained in the presence of compound with those of positive and negative controls (cells with no compound and no detection antibody being added), allows degree of inhibition of phospho-FAK [Y397] to be determined over a range of compound concentrations. […] The assay as described above was modified to determine the effect of inclusion of 50% (v/v) mouse or human plasma. In this assay, the compound plate was prepared as 2× concentration in 100 uL of 100% mouse or human plasma, and 60 uL of this was added to 60 uL of culture medium and incubated at 37° C. incubator for 2 h. The rest of the assay was carried out as described above.

[2] = target: T2, GST-tagged full-length FAK enzyme (PTK2) (Homo sapiens, UniProt Q05397); assay: Biochemical Omnia Assay (FAK)
T2 construct: GST-tagged full-length FAK enzyme (PTK2, Invitrogen PV4085); GST; purchased Invitrogen PV4085
Description: Biochemical Omnia Assay Protocol
The Omnia Assay (Invitrogen) has been optimized for GST-tagged full-length FAK enzyme (PTK2, Invitrogen PV4085).
All compound concentrations were assayed in duplicate. Initial compound dilutions were prepared at 100× concentration in 100% DMSO from a 10 mM stock solution. Compounds were further diluted 1:25 in assay buffer resulting in a 4× concentrated solution.
In running the assay, 5 μL of the above 4× concentrated compound solution (or 4% DMSO for positive controls) was added to the assay plate followed by 5 μL of a solution containing peptide (40 μM) and ATP (200 μM) in assay buffer. The reaction was initiated by the addition of 10 μL of FAK (50 nM) in assay buffer, or assay buffer alone for negative controls. The increase in fluorescence due to peptide phosphorylation was monitored continuously as a function of time using a Spectramax M5 plate reader (Molecular Devices) equipped with SoftMax Pro 5.2 software.
IC50 values were determined from the slopes of the linear progress curves by non-linear curve-fitting using GraphPad Prism 5 (GraphPad Software, Inc.).

[3] = 50% (v/v) human plasma, mean IC50, read-out: FAK Activity Mechanistic (U87MG) HP
[4] = no plasma present, mean IC50, read-out: FAK Activity Mechanistic (U87MG) NP
[5] = 50% (v/v) mouse plasma, mean IC50, read-out: FAK Activity Mechanistic (U87MG) MP
[6] = FAK Activity Mechanistic (U87MG) MP, 50% (v/v) mouse plasma, mean IC50
[7] = mean IC50, [ATP] = 50uM, read-out: FAK Activity Biochemical OMNIA, [ATP] = 50uM

T2 sequence (Q05397 whole entry): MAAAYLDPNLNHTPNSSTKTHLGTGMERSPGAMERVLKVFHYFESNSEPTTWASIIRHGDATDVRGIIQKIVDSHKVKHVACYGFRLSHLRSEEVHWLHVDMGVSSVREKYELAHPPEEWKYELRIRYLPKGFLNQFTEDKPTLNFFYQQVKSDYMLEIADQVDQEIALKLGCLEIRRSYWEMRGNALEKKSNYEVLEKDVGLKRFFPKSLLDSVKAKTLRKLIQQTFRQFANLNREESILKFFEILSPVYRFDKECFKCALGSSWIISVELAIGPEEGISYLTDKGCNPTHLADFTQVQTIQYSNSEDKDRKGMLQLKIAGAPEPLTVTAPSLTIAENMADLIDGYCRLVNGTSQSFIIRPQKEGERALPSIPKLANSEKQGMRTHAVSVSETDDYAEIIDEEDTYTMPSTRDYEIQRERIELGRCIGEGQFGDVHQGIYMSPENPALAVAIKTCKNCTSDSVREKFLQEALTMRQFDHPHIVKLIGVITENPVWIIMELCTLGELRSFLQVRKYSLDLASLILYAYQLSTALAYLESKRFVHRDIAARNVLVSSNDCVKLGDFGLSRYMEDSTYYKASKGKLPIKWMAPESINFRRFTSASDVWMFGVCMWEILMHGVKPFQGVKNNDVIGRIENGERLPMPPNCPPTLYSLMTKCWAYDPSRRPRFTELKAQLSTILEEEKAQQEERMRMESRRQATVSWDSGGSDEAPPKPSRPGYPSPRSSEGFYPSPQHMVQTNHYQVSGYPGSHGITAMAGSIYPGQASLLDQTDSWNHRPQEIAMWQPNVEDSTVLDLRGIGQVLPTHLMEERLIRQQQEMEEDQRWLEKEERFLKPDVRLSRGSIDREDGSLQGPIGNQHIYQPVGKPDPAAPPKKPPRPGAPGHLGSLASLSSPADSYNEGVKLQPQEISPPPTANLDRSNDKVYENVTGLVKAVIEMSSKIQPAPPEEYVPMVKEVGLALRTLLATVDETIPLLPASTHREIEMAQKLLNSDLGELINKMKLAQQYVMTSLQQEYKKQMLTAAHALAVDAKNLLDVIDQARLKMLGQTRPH
T1 sequence (Q05397 whole entry): as above

SMILES	IC50 [1, 3]	IC50 [1, 4]	IC50 [2]	IC50 [1, 5]	IC50 [1, 6]	IC50 [2, 7]
CCOP1(=O)Cc2ccc(c(C)c2)Nc2ncc(C(F)(F)F)c(n2)Nc2ccc(nc2C(=O)NC)-c2cnn(c2)CCCO1 (racemic) [Example 33]	< 400 nM	< 400 nM	< 400 nM			
CCOP1(=O)Cc2ccc(c(OC)c2)Nc2ncc(C(F)(F)F)c(n2)Nc2ccc(nc2C(=O)NC)-c2cnn(c2Cl)CCCO1 (racemic) [Example 51]	< 400 nM	< 400 nM	< 400 nM	400 to 4000 nM		
CCOP1(=O)Cc2ccc(c(OC)c2)Nc2ncc(C(F)(F)F)c(n2)Nc2ccc(nc2C(=O)NC)-c2cc(C(=O)N3CC(C)(O)C3)n(c2)CCCO1 (racemic) [Example 40]		< 400 nM	< 400 nM		400 to 4000 nM	
CCP1(=O)Cc2ccc(c(OC)c2)Nc2ncc(C(F)(F)F)c(n2)Nc2ccc(nc2C(=O)NC)-c2cnn(c2)CCCO1 (racemic) [Example 67]	< 400 nM	< 400 nM		< 400 nM		< 400 nM
CCOP1(=O)Cc2ccc(cc2)Nc2ncc(C(F)(F)F)c(n2)Nc2ccc(nc2C(=O)NC)-c2cnn(c2)CCCO1 (racemic) [Example 13]	< 400 nM	< 400 nM				< 400 nM
CCOP1(=O)Cc2ccc(c(F)c2)Nc2ncc(C(F)(F)F)c(n2)Nc2ccc(nc2C(=O)NC)-c2cnn(c2)CCCO1 (racemic) [Example 22]	< 400 nM	400 to 4000 nM	< 400 nM			
CCOP1(=O)Cc2ccc(cc2)Nc2ncc(C(F)(F)F)c(n2)Nc2ccc(c3c2C(=O)N(C)C3)-c2cnn(c2)CCCO1 (racemic) [Example 2]	< 400 nM		< 400 nM			
CCOP1(=O)Cc2ccc(c(OC)c2)Nc2ncc(C(F)(F)F)c(n2)Nc2ccc(nc2C(=O)NC)-c2cnn(c2)CC(C)CO1 (single isomer, unassigned) [Example 18]	< 400 nM	< 400 nM				< 400 nM
CCOP1(=O)Cc2ccc(cc2)Nc2ncc(C(F)(F)F)c(n2)Nc2ccc(nc2C(=O)NC)-c2cnn(c2)CCCCO1 (centres unmarked) [Example 16, 11-ethoxy-N-methyl-21-(trifluoromethyl)-10-oxa-4,5,17,19,23,26,29-heptaaza-11-phosphapentacyclo[22.2.2.2^13,16.1^2,5.1^18,22]dotriaconta-1(26),2(32),3,13,15,18(29),19,21,24,27,30-undecaene-25-carboxamide 11-oxide]	< 400 nM	< 400 nM	< 400 nM			
CCCP1(=O)Cc2ccc(c(OC)c2)Nc2ncc(C(F)(F)F)c(n2)Nc2ccc(nc2C(=O)NC)-c2cnn(c2)CCCO1 (racemic) [Example 37]	< 400 nM	< 400 nM		400 to 4000 nM		< 400 nM
CCO[P@@]1(=O)Cc2ccc(c(OC)c2)Nc2ncc(C(F)(F)F)c(n2)Nc2cc(F)c(cc2C(=O)NC)-c2cnn(c2)CCCO1.CCO[P@]1(=O)Cc2ccc(c(OC)c2)Nc2ncc(C(F)(F)F)c(n2)Nc2cc(F)c(cc2C(=O)NC)-c2cnn(c2)CCCO1 (mixture of isomers) [Example 7]	< 400 nM	< 400 nM		< 400 nM		< 400 nM
CCP1(=O)Cc2ccc(c(OC)c2)Nc2ncc(C(F)(F)F)c(n2)Nc2ccc(nc2C(=O)NC)-c2cnn(c2)CCCO1 (single isomer, unassigned) [Example 67A]	400 to 4000 nM	< 400 nM		400 to 4000 nM		< 400 nM
CCOP1(=O)Cc2ccc(c(OC)c2)Nc2ncc(C(F)(F)F)c(n2)Nc2ccc(nc2C(=O)NC)-c2cnn(c2)CCCO1 (racemic) [Example 6]	< 400 nM	< 400 nM	< 400 nM			
CNC(=O)c1nc2ccc1Nc1nc(ncc1C(F)(F)F)Nc1ccc(cc1OC)CP(=O)(OC(C)C)OCCCn1cc-2cn1 (single isomer, unassigned) [Example 72A]	400 to 4000 nM	< 400 nM		< 400 nM		
CCOP1(=O)Cc2ccc(c(OC)c2)Nc2ncc(C(F)(F)F)c(n2)Nc2ccc(nc2C(=O)NC)-c2cnn(c2)CC2(CC2)CO1 (racemic) [Example 63]	< 400 nM	< 400 nM				
CCOP1(=O)Cc2ccc(c(F)c2)Nc2ncc(C(F)(F)F)c(n2)Nc2ccc(nc2C(=O)NC)-c2cnn(c2)CCCCO1 (racemic) [Example 23]	< 400 nM	< 400 nM				< 400 nM
CCOP1(=O)Cc2ccc(c(OC)c2)Nc2ncc(C(F)(F)F)c(n2)Nc2ccc(nc2C(=O)NC)-c2cc(C(=O)NC)n(c2)CCCO1 (racemic) [Example 42]	< 400 nM	< 400 nM	< 400 nM		400 to 4000 nM	
CCOP1(=O)Cc2ccc(c(OC)c2)Nc2ncc(C(F)(F)F)c(n2)Nc2ccc(nc2C(=O)NC)-c2cnn(c2)CC2(COC2)CO1 (single isomer, unassigned) [Example 44A]	< 400 nM	< 400 nM	< 400 nM			
CCOP1(=O)Cc2ccc(c(OC)c2)Nc2ncc(C(F)(F)F)c(n2)Nc2ccc(cc2C(=O)N(C)C)-c2cnn(c2)CCCO1 (racemic) [Example 12]	400 to 4000 nM	< 400 nM				< 400 nM
CCOP1(=O)Cc2ccc(c(OC)c2)Nc2ncc(C(F)(F)F)c(n2)Nc2ccc(nc2C(=O)NC)-c2cnn(c2)CC(C)CO1 (mixture of isomers) [Example 19]	< 400 nM	< 400 nM				< 400 nM
CCOP1(=O)Cc2ccc(c(OC)c2)Nc2ncc(C(F)(F)F)c(n2)Nc2ccc(cc2C(=O)NOC)-c2cnn(c2)CCCO1 (racemic) [Example 26]	< 400 nM	< 400 nM		400 to 4000 nM		< 400 nM
CCOP1(=O)Cc2ccc(c(Br)c2)Nc2ncc(C(F)(F)F)c(n2)Nc2ccc(nc2C(=O)NC)-c2cnn(c2)CCCO1 (racemic) [Example 32]	< 400 nM	< 400 nM				< 400 nM
CNC(=O)c1nc2ccc1Nc1nc(ncc1C(F)(F)F)Nc1ccc(cc1OC)CP(C)(=O)OCCCn1cc-2cn1 (single isomer, unassigned) [Example 61B]						< 400 nM
CCOP1(=O)Cc2ccc(c(OC)c2)Nc2ncc(C(F)(F)F)c(n2)Nc2ccc(nc2C(=O)NC)-c2cnn(c2)CC[C@@H](C)O1 (mixture of isomers) [Example 69]	< 400 nM	< 400 nM				
CCP1(=O)Cc2ccc(c(OC)c2)Nc2ncc(C(F)(F)F)c(n2)Nc2ccc(nc2C(=O)NC)-c2cnn(c2)CC2(CC2)CO1 (racemic) [Example 71]	< 400 nM	< 400 nM		< 400 nM		
CCOP1(=O)Cc2ccc(c(OC)c2)Nc2ncc(C(F)(F)F)c(n2)Nc2ccc(nc2C(=O)NC)-c2cnn(c2)CC[C@H](C)O1 (mixture of isomers) [Example 70]	< 400 nM	< 400 nM		400 to 4000 nM		
CNC(=O)c1nc2ccc1Nc1nc(ncc1C(F)(F)F)Nc1ccc(cc1OC)CP(=O)(OC(C)C)OCCCn1cc-2cn1 (racemic) [Example 72]	< 400 nM	< 400 nM		< 400 nM		
